Structures can show the parent of a compound that is named as a salt.
Test system: spiral strips of the pulmonary artery of the guinea-pig
Assay: Relaxation of potassium-depolarised, CaCl2-contracted pulmonary artery spiral strips (modified method of Godfraind and Kaba and of Schuman et al.)
Conditions: for IC50: Cavia porcellus, 40 mmol/l potassium depolarised, contraction induced by 0.5 mmol/l CaCl2, cumulative addition in 1/2 log 10 steps, average of 4 to 6 vessel strips, read-out: IC50 (concentration of the test substance which inhibits the contraction by 50%); for Duration of action: time needed after addition of the test substance until the starting value is obtained again
Description: The pharmacological action of the compounds of the formula I was determined by a modified method of Godfraind and Kaba (Arch. Int. Pharmacodyn. Ther. 196, (Suppl) 35 to 49, 1972) and of Schuman et al. (Naunyn-Schmiedeberg,s Arch. Pharmacol. 289, 409 to 418, 1975). In this connection, spiral strips of the pulmonary artery of the guinea-pig are depolarised with 40 mmol/1 of potassium after equilibration in calcium-free Tyrode solution. An addition of 0.5 mmol/1 of CaCl2 then induces a contraction. The relaxing action of the test substance is determined by cumulative addition in 1/2 log 10 stepped concentrations. From the concentration-effect curve (abscissa: -log mol/1 of test substance, ordinate: % inhibition of the maximum contraction, average value of 4 to 6 vessel strips), the concentration of the test substance is determined which inhibits the contraction by 50% (=IC50, mol/1). The duration of action of the test substance is given by the time which is needed after the addition of the test substance until the starting value is obtained again. […] On the other hand, the similarly active compound SIN-1 is clearly surpassed by the compounds according to the invention with respect to its duration of action.

SMILES	IC50 [µM]	Duration of action [min]
CC1(C)CN(S(C)(=O)=O)CCN1[n+]1cc(=N)o[n-]1.Cl [Example 1, 3-(2,2-Dimethyl-4-methanesulphonylpiperazin-1-yl)sydnone imine hydrochloride]	1.9	200
Cc1ccc(S(=O)(=O)N2CCN([n+]3cc(=N)o[n-]3)C(C)(C)C2)cc1.Cl [Example 2, 3-(2,2-Dimethyl-4-tosylpiperazin-1-yl)sydnone imine hydrochloride]	0.65	220
CCOC(=O)[N-]c1cn(N2CCOCC2)n[o+]1 [Molsidomine, NEthoxycarbonyl-3-morpholinosydnone imine, reference compound]	300	100
CN(C)S(=O)(=O)N1CCN([n+]2cc(=N)o[n-]2)C(C)(C)C1 [Example 3, 3-(2,2-Dimethyl-4-dimthylaminosulphonylpiperazin-1-yl)sydnone imine hydrochloride]	2.5	200

The next lines start with results.

IC50 [µM]	SMILES	Duration of action [min]
3	CC(C)C(=O)N=c1c[n+](N2CCN(S(C)(=O)=O)CC2(C)C)[n-]o1 [CH3, drawing 12]	210
1	Cl.N=c1c[n+](N2CCOCC2)[n-]o1 [SIN-1, 3Morpholinosydnone imine hydrochloride, reference compound]	80

Reference: patent US5155109A, “3-piperazinosydnone imines, process for their preparation and their use” (Cassella Aktiengesellschaft, priority 1990, dated 1992)
